The results in this text go back to publication PMC9402538, “Rational design of a sensitivity-enhanced tracer for discovering efficient APC–Asef inhibitors” (Nature Communications, 2022).

Values joined by “and” are separate entries in the source; they are usually repeats but may differ in a detail not shown here. Equal values may be shown once. Read-outs that look alike come from different tables or passages of the source. Where a SMILES comes first, the peptide text is derived from it. [ ]: non-standard residue; d: D form. The star is where a group is joined. Phe(4-tBu) = CC(C)(C)c1ccc(C[C@H](N)C(=O)O)cc1; Bpa = N[C@@H](Cc1ccc(C(=O)c2ccccc2)cc1)C(=O)O; Benzoyl(4-OMe) = COc1ccc(C(=O)*)cc1; Isonicotinoyl = O=C(c1ccncc1)*; 2Furoyl = O=C(c1ccco1)*; X3 = O=C(c1ccncn1)*; Mpa = O=C(O)CCS

The target of the experiment is T1, APC (303–739) (Homo sapiens, UniProt P25054).
T1 sequence (P25054 303-739): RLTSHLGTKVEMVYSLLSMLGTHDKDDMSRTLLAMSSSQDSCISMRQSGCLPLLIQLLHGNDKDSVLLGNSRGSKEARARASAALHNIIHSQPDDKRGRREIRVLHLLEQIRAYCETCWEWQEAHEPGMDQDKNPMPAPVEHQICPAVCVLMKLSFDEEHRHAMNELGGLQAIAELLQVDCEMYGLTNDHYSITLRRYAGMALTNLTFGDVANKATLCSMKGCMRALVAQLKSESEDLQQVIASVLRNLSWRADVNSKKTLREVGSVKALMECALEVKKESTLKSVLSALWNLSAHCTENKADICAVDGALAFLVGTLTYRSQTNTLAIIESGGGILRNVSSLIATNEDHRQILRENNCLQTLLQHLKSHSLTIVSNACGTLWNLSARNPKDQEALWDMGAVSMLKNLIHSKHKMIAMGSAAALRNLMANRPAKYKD
In words: FP competitive assay using tracer 7. Format: binding. As for the experimental part: FITC-labeled tracer peptides were obtained from Changzhou Kanglong Biotech Ltd. (Changzhou, Jiangsu, China). […]. The FP signal changes upon tracer binding were measured after 1.5 h of incubation using a Synergy neo microplate reader (BioTek Instruments, Inc.) and plotted against the protein concentration. The corresponding EC50 values were generated by fitting the curves with a nonlinear regression model. […]. To make a working solution, APC (303–739) was diluted in FP buffer (50 mM HEPES, pH 7.5, 300 mM NaCl, 1 mM EDTA, 1 mM DTT). The diluted APC protein (91 μL) was combined with a serial dilution of peptides (4 μL) and incubated at room temperature for 1 h, followed by the addition of 5 μL of 400 nM tracer 7. The FP signals were measured after 1.5 h of incubation at room temperature using a Synergy neo microplate reader. Three controls were included on each plate, i.e., blank (without protein and tracer), 100% inhibition (free tracer only), and 0% inhibition (protein/tracer complex only) controls. All experiments were performed in triplicate. The IC50 values of peptides were calculated by nonlinear regression analysis using GraphPad Prism 7.0 software.

The mark [1] stands for this setting: Repeat 1, Table 3 source data, read-out: IC50(μM) Repeat 1.
Where [2] appears, read: Repeat 2, Table 3 source data, read-out: IC50(μM) Repeat 2.
[3] abbreviates: Repeat 3, Table 3 source data, read-out: IC50(μM) Repeat 3.
Where [4] appears, read: mean of 3 repeats, Table 3 source data, read-out: IC50(μM) mean.
The mark [5] stands for this setting: Conc. 0.0049 μM, individual repeats, Fig3b.
The mark [6] stands for this setting: Conc. 0.0098 μM, individual repeats, Fig3b.
Setting [7] is: Conc. 0.0195 μM, individual repeats, Fig3b.
Where [8] appears, read: Conc. 0.0391 μM, individual repeats, Fig3b.
The mark [9] stands for this setting: Conc. 0.0781 μM, individual repeats, Fig3b.
Where [10] appears, read: Conc. 0.1563 μM, individual repeats, Fig3b.
Setting [11] is: Conc. 0.3125 μM, individual repeats, Fig3b.
Where [12] appears, read: Conc. 0.625 μM, individual repeats, Fig3b.
Where [13] appears, read: Conc. 2.5 μM, individual repeats, Fig3b.
The mark [14] stands for this setting: Conc. 5 μM, individual repeats, Fig3b.
[15] abbreviates: Conc. 10 μM, individual repeats, Fig3b.
Where [16] appears, read: Conc. 20 μM, individual repeats, Fig3b.

By IC50 is commonly meant the midpoint of a concentration-inhibition curve. As for `CC(C)C[C@H](NC(=O)[C@H](CO)NC(=O)[C@H](CCC(=O)O)NC(=O)CNC(=O)[C@H](C)NC(=O)c1ccco1)C(=O)N[C@@H](Cc1ccc(O)cc1)C(=O)N[C@@H](CCC(=O)O)C(N)=O` [MAI-506] (2Furoyl-AGESLYE-NH2), the IC50 was determined as 0.323 µM under setting [1], 0.419 µM under setting [2], 0.457 µM under setting [3] and 0.4 µM under setting [4].
The term inhibition denotes the share of the control response that was lost under treatment. In general, %inhibition refers to the drop in the measured response relative to a control, in per cent. `COc1ccc(C(=O)N[C@@H](C)C(=O)NCC(=O)N[C@@H](CCC(=O)O)C(=O)N[C@@H](CO)C(=O)N[C@@H](CC(C)C)C(=O)N[C@@H](Cc2ccc(O)cc2)C(=O)N[C@@H](Cc2ccc(C(=O)c3ccccc3)cc2)C(N)=O)cc1` [MAI-521] ({Benzoyl(4-OMe)}-AGESLY[Bpa]-NH2): the inhibition at 0.0015 µM (Conc. 0.0015 μM, individual repeats, Fig3b) came to 1.5%. The “%inhibition” value was -0.4% and 2.8% (Conc. 0.0024 μM, individual repeats, Fig3b); 2.6% under setting [5]; 10.8% under setting [6]; 24.3% under setting [7]; 41% under setting [8]; 60.9% under setting [9]. Besides, the “%inhibition” value is on record as 75% under setting [10]; 86.3% under setting [11]; 93.8% under setting [12]; 98.9% under setting [13]; 100.8% under setting [14]; 101.1% under setting [15]. Moreover, the “%inhibition” value under setting [16] turned out to be 101.7%. Moreover, the inhibition at 0.0031 µM (Conc. 0.0031 μM, individual repeats, Fig3b) is 2%. Further, under setting [5], the inhibition at 0.0049 µM stood at 1.8%. The inhibition at 0.006 µM (Conc. 0.006 μM, individual repeats, Fig3b) stood at 3.2%. The inhibition at 0.0098 µM under setting [6] stood at 6.3%. In addition, under “Conc. 0.012 μM, individual repeats, Fig3b”, the inhibition at 0.012 µM turned out to be 9%. In addition, under setting [7], the inhibition at 0.0195 µM stood at 16%. For the setting “Conc. 0.024 μM, individual repeats, Fig3b”, the inhibition at 0.024 µM is 22.1%. Moreover, the inhibition at 0.0391 µM under setting [8] came to 35.5%. Where the note is “Conc. 0.049 μM, individual repeats, Fig3b”, the inhibition at 0.049 µM worked out at 39.2%. The inhibition at 0.0781 µM under setting [9] amounted to 56.4%. In addition, the inhibition at 0.098 µM (Conc. 0.098 μM, individual repeats, Fig3b) is 74.8%. Besides, the inhibition at 0.1563 µM under setting [10] is 74.4%. Further, where the note is “Conc. 0.195 μM, individual repeats, Fig3b”, the inhibition at 0.195 µM worked out at 77.9%. Also, under setting [11], the inhibition at 0.3125 µM is 86%. In addition, the inhibition at 0.391 µM (Conc. 0.391 μM, individual repeats, Fig3b) is 87.6%. The inhibition at 0.625 µM under setting [12] amounted to 92%. The inhibition at 0.781 µM (Conc. 0.781 μM, individual repeats, Fig3b) worked out at 92.8%. For the same compound, under “Conc. 1.25 μM, individual repeats, Fig3b”, the inhibition at 1.25 µM was determined as 95.3%. The inhibition at 1.563 µM (Conc. 1.563 μM, individual repeats, Fig3b) was 95.7%. Also, the inhibition at 2.5 µM under setting [13] came to 96.1%. Besides, under “Conc. 3.125 μM, individual repeats, Fig3b”, the inhibition at 3.125 µM came to 97.1%. Besides, the inhibition at 5 µM under setting [14] is 96.6%. Besides, the inhibition at 6.25 µM (Conc. 6.25 μM, individual repeats, Fig3b) turned out to be 98.3%. Also, under setting [15], the inhibition at 10 µM came out at 97.4%. Besides, the inhibition at 12.5 µM (Conc. 12.5 μM, individual repeats, Fig3b) amounted to 97.7%. In addition, the inhibition at 20 µM under setting [16] worked out at 97%. For the same compound, the IC50 is 0.0536 µM (IC50 Repeat 1, tracer 7); 0.054 µM (IC50 Repeat 2, tracer 7); 0.0516 µM (IC50 Repeat 3, tracer 7); 0.0531 µM (IC50 mean, tracer 7, mean of three repeats). The “mean (FP signal, FigS5)” value by setting is: (Repeat 1, Conc. 0.0015 μM) 296.3; (Repeat 1, Conc. 0.0031 μM) 295; (Repeat 1, Conc. 0.006 μM) 292; (Repeat 1, Conc. 0.012 μM) 277.7; (Repeat 1, Conc. 0.024 μM) 245; (Repeat 1, Conc. 0.049 μM) 202.3. In addition, the “mean (FP signal, FigS5)” value (Repeat 1, Conc. 0.098 μM) worked out at 113.7; the “mean (FP signal, FigS5)” value (Repeat 1, Conc. 0.195 μM) is recorded as 106; the “mean (FP signal, FigS5)” value (Repeat 1, Conc. 0.391 μM) stood at 82; the “mean (FP signal, FigS5)” value (Repeat 1, Conc. 0.781 μM) is reported as 69; the “mean (FP signal, FigS5)” value (Repeat 1, Conc. 1.563 μM) was 61.7; the “mean (FP signal, FigS5)” value (Repeat 1, Conc. 3.125 μM) was 58.3. The “mean (FP signal, FigS5)” value (Repeat 1, Conc. 6.25 μM) turned out to be 55.3; the “mean (FP signal, FigS5)” value (Repeat 1, Conc. 12.5 μM) is 56.7; the “mean (FP signal, FigS5)” value (Repeat 2, Conc. 0.0024 μM) is recorded as 282.7; the “mean (FP signal, FigS5)” value (Repeat 2, Conc. 0.0049 μM) came to 277.5; the “mean (FP signal, FigS5)” value (Repeat 2, Conc. 0.0098 μM) is 267; the “mean (FP signal, FigS5)” value (Repeat 2, Conc. 0.0195 μM) was determined as 244.3. In addition, the “mean (FP signal, FigS5)” value reads like this: (Repeat 2, Conc. 0.0391 μM) 199; (Repeat 2, Conc. 0.0781 μM) 150.3; (Repeat 2, Conc. 0.1563 μM) 108.7; (Repeat 2, Conc. 0.3125 μM) 81.7; (Repeat 2, Conc. 0.625 μM) 67.7; (Repeat 2, Conc. 1.25 μM) 60. Moreover, the “mean (FP signal, FigS5)” value is, setting by setting: (Repeat 2, Conc. 2.5 μM) 58; (Repeat 2, Conc. 5 μM) 57; (Repeat 2, Conc. 10 μM) 55; (Repeat 2, Conc. 20 μM) 56; (Repeat 3, Conc. 0.0024 μM) 286; (Repeat 3, Conc. 0.0049 μM) 286.5. Moreover, the “mean (FP signal, FigS5)” value (Repeat 3, Conc. 0.0098 μM) is given as 266.5; the “mean (FP signal, FigS5)” value (Repeat 3, Conc. 0.0195 μM) was 234; the “mean (FP signal, FigS5)” value (Repeat 3, Conc. 0.0391 μM) is listed as 193.7; the “mean (FP signal, FigS5)” value (Repeat 3, Conc. 0.0781 μM) was 145.7; the “mean (FP signal, FigS5)” value (Repeat 3, Conc. 0.1563 μM) came out at 111.7; the “mean (FP signal, FigS5)” value (Repeat 3, Conc. 0.3125 μM) was found to be 84.3. For the same compound, the “mean (FP signal, FigS5)” value is recorded as 66.3 (Repeat 3, Conc. 0.625 μM); 58.7 (Repeat 3, Conc. 1.25 μM); 54 (Repeat 3, Conc. 2.5 μM); 49.3 (Repeat 3, Conc. 5 μM); 48.7 (Repeat 3, Conc. 10 μM); 47.3 (Repeat 3, Conc. 20 μM).
On to `COc1ccc(C(=O)N[C@@H](C)C(=O)NCC(=O)N[C@@H](CCC(=O)O)C(=O)N[C@@H](CO)C(=O)N[C@@H](CC(C)C)C(=O)N[C@@H](Cc2ccc(O)cc2)C(=O)N[C@@H](Cc2ccc(C(C)(C)C)cc2)C(N)=O)cc1` [MAI-522] ({Benzoyl(4-OMe)}-AGESLY[Phe(4-tBu)]-NH2), for which the IC50 (tracer 7, mean of three repeats, read-out: IC50 mean) came out at 0.147 µM; the IC50 (tracer 7, read-out: IC50 Repeat 1) came out at 0.166 µM; the IC50 (tracer 7, read-out: IC50 Repeat 2) amounted to 0.144 µM; the IC50 (tracer 7, read-out: IC50 Repeat 3) was 0.131 µM.
Turning to `CC(C)C[C@H](NC(=O)[C@H](CO)NC(=O)[C@H](CCC(=O)O)NC(=O)CNC(=O)[C@H](C)NC(=O)c1ccncc1)C(=O)N[C@@H](Cc1ccc(O)cc1)C(=O)N[C@@H](CCC(=O)O)C(N)=O` [MAI-514] (Isonicotinoyl-AGESLYE-NH2), the concentration for half-maximal inhibition (IC50) by setting is: under setting [1], 0.116 µM; under setting [2], 0.128 µM; under setting [3], 0.0999 µM; under setting [4], 0.114 µM.
Take `CC(C)C[C@H](NC(=O)[C@H](CO)NC(=O)[C@H](CCC(=O)O)NC(=O)CNC(=O)[C@H](C)NC(=O)CCS)C(=O)N[C@@H](Cc1ccc(O)cc1)C(=O)N[C@@H](CCC(=O)O)C(N)=O` [MAI-502] ([Mpa]AGESLYE-NH2): the IC50 was 2.46 µM under setting [1], 1.52 µM under setting [2], 2.21 µM under setting [3] and 2.06 µM under setting [4].
For `CC(C)C[C@H](NC(=O)[C@H](CO)NC(=O)[C@H](CCC(=O)O)NC(=O)CNC(=O)[C@H](C)NC(=O)c1ccncn1)C(=O)N[C@@H](Cc1ccc(O)cc1)C(=O)N[C@@H](CCC(=O)O)C(N)=O` [MAI-464] (X3-AGESLYE-NH2), the IC50 (Supplementary Table 4, read-out: IC50, Tracer 7) is 0.22 ± 0.01 µM.
